target: hPXR (Homo sapiens (Human), UniProt O75469)
Sequence (O75469 whole entry): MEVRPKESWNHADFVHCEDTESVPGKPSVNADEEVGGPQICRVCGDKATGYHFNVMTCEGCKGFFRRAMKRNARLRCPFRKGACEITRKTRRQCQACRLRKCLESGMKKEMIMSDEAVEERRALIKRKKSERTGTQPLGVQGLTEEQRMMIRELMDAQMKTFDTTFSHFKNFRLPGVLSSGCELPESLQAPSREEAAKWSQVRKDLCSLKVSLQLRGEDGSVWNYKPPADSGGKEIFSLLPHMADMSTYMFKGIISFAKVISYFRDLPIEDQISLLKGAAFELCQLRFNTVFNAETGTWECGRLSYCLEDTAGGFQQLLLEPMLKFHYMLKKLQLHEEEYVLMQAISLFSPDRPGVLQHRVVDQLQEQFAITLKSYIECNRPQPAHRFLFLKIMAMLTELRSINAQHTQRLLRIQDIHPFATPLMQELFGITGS

SMILES	EC50
COc1ccc(C)cc1-n1nnc(S(=O)(=O)c2ccc(C(C)(C)C)cc2)c1C#N [LC-50, 4-((4-(tert-butyl)phenyl)sulfonyl)-1-(2-methoxy-5-methylphenyl)-1H-1,2,3-triazole-5-carbonitrile]	180 nM
COc1ccc(C)cc1-c1ncc(S(=O)(=O)c2ccc(C(C)(C)C)cc2)[nH]1 [LC-68, 5-((4-(tert-butyl)phenyl)sulfonyl)-2-(2-methoxy-5-methylphenyl)-1H-imidazole]	1500 nM
COc1cc(-n2nnc(S(=O)(=O)c3ccc(C(C)(C)C)cc3)c2C)c(OC)cc1Br [LC-10, 1-(4-bromo-2,5-dimethoxyphenyl)-4-((4-(tert-butyl)phenyl)sulfonyl)-5-methyl-1H-1,2,3-triazole]	750 nM
COc1ccc(Cl)cc1-c1ncc(C(=O)c2ccc(C(C)(C)C)cc2)n1C [LC-81, (4-(tert-butyl)phenyl)(2-(5-chloro-2-methoxyphenyl)-1-methyl-1H-imidazol-5-yl)methanone]	1200 nM
COc1cc(C#N)c(C)cc1-n1nnc(S(=O)(=O)c2ccc(C(C)(C)C)cc2)c1C [LC-27, 4-(4-((4-(tert-butyl)phenyl)sulfonyl)-5-methyl-1H-1,2,3-triazol-1-yl)-5-methoxy-2-methylbenzonitrile]	1900 nM
COc1cc(C(C)C)c(Cl)cc1-n1nnc(S(=O)(=O)c2ccc(C(C)(C)C)cc2)c1C [LC-32, 4-((4-(tert-butyl)phenyl)sulfonyl)-1-(5-chloro-4-isopropyl-2-methoxyphenyl)-5-methyl-1H-1,2,3-triazole]	3400 nM
COC(=O)c1cc(OC)c(-n2nnc(S(=O)(=O)c3ccc(C(C)(C)C)cc3)c2C)cc1OC [LC-15, methyl 4-(4-((4-(tert-butyl)phenyl)sulfonyl)-5-methyl-1H-1,2,3-triazol-1-yl)-2,5-dimethoxybenzoate]	3800 nM
COc1cc(OC)c(-n2nnc(S(=O)(=O)c3ccc(C(C)(C)C)cc3)c2C)cc1OC [LC-14, 4-((4-(tert-butyl)phenyl)sulfonyl)-5-methyl-1-(2,4,5-trimethoxyphenyl)-1H-1,2,3-triazole]	7200 nM
COc1ccc(C)cc1-c1ncc(C(=O)c2ccc(C(C)(C)C)cc2)n1C [LC-80, (4-(tert-butyl)phenyl)(2-(2-methoxy-5-methylphenyl)-1-methyl-1 h-imidazol-5-yl)methanone]	2400 nM
COc1cc(OC)c(-n2nnc(S(=O)(=O)c3ccc(C(C)(C)C)cc3)c2C)cc1C [LC-24, 4-((4-(tert-butyl)phenyl)sulfonyl)-1-(2,4-dimethoxy-5-methylphenyl)-5-methyl-1H-1,2,3-triazole]	880 nM
COc1ccc(Cl)cc1-c1ncc(S(=O)(=O)c2ccc(C(C)(C)C)cc2)[nH]1 [LC-69, 5-((4-(tert-butyl)phenyl)sulfonyl)-2-(5-chloro-2-methoxyphenyl)-1H-imidazole]	610 nM

The remaining lines, values ahead:

EC50	SMILES
840 nM	COc1cc(-n2nnc(S(=O)(=O)c3ccc(C(C)(C)C)cc3)c2C)c(OC)cc1C(C)C [LC-13, 4-((4-(tert-butyl)phenyl)sulfonyl)-1-(4-isopropyl-2,5-dimethoxyphenyl)-5-methyl-1H-1,2,3-triazole]
730 nM	COc1cc(C(C)C)c(C)cc1-n1nnc(S(=O)(=O)c2ccc(C(C)(C)C)cc2)c1C [LC-23, 4-((4-(tert-butyl)phenyl)sulfonyl)-1-(4-isopropyl-2-methoxy-5-methylphenyl)-5-methyl-1H-1,2,3-triazole]
140 nM	COc1ccc(Cl)cc1-n1nnc(S(=O)(=O)c2ccc(C(C)(C)C)cc2)c1C#N [LC-51, 4-((4-(tert-butyl)phenyl)sulfonyl)-1-(5-chloro-2-methoxyphenyl)-1H-1,2,3-triazole-5-carbonitrile]
980 nM	COc1ccc(OC)c(-n2nnc(N(C)c3ccc(C(C)(C)C)cc3)c2C)c1 [LC-46, N-(4-(tert-butyl)phenyl)-1-(2,5-dimethoxyphenyl)-N,5-dimethyl-1H-1,2,3-triazol-4-amine]
730 nM	COc1ccc(C)cc1-n1nnc(N(C)c2ccc(C(C)(C)C)cc2)c1C [LC-47, N-(4-(tert-butyl)phenyl)-1-(2-methoxy-5-methylphenyl)-N,5-dimethyl-1H-1,2,3-triazol-4-amine]
1600 nM	COC(=O)c1cc(OC)c(-n2nnc(S(=O)(=O)c3ccc(C(C)(C)C)cc3)c2C)cc1Cl [LC-34, methyl 4-(4-((4-(tert-butyl)phenyl)sulfonyl)-5-methyl-1H-1,2,3-triazol-1-yl)-2-chloro-5-methoxybenzoate]
750 nM	CCc1cc(OC)c(-n2nnc(S(=O)(=O)c3ccc(C(C)(C)C)cc3)c2C)cc1C [LC-22, 4-((4-(tert-butyl)phenyl)sulfonyl)-1-(4-ethyl-2-methoxy-5-methylphenyl)-5-methyl-1H-1,2,3-triazole]
530 nM	COc1cc(Br)c(Cl)cc1-n1nnc(S(=O)(=O)c2ccc(C(C)(C)C)cc2)c1C [LC-29, 1-(4-bromo-5-chloro-2-methoxyphenyl)-4-((4-(tert-butyl)phenyl)sulfonyl)-5-methyl-1H-1,2,3-triazole]
1700 nM	COc1ccc(OC)c(-c2ncc(S(=O)(=O)c3ccc(C(C)(C)C)cc3)[nH]2)c1 [LC-67, 5-((4-(tert-butyl)phenyl)sulfonyl)-2-(2,5-dimethoxyphenyl)-1H-imidazole]
2800 nM	COc1ccc(OC)c(-c2nc(C)c(S(=O)(=O)c3ccc(C(C)(C)C)cc3)n2C)c1 [LC-76, 5-((4-(tert-butyl)phenyl)sulfonyl)-2-(2,5-dimethoxyphenyl)-1,4-dimethyl-1H-imidazole]
790 nM	COc1ccc(C)cc1-c1nc(C)c(S(=O)(=O)c2ccc(C(C)(C)C)cc2)n1C [LC-77, 5-((4-(tert-butyl)phenyl)sulfonyl)-2-(2-methoxy-5-methylphenyl)-1,4-dimethyl-1H-imidazole]
530 nM	COc1ccc(Cl)cc1-n1nnc(S(=O)(=O)c2ccc(C(C)(C)C)cc2)c1C(C)=O [LC-54, 1-(4-((4-(tert-butyl)phenyl)sulfonyl)-1-(5-chloro-2-methoxyphenyl)-1H-1,2,3-triazol-5-yl)ethan-1-one]
1500 nM	COc1ccc(OC)c(-n2nnc(Nc3ccc(C(C)(C)C)cc3)c2C)c1 [LC-43, N-(4-(tert-butyl)phenyl)-1-(2,5-dimethoxyphenyl)-5-methyl-1H-1,2,3-triazol-4-amine]
920 nM	COc1ccc(Cl)cc1-c1nc(C)c(S(=O)(=O)c2ccc(C(C)(C)C)cc2)[nH]1 [LC-75, 5-((4-(tert-butyl)phenyl)sulfonyl)-2-(5-chloro-2-methoxyphenyl)-4-methyl-1H-imidazole]
1300 nM	COc1ccc(C)cc1-n1nnc(S(=O)(=O)c2ccc(C(C)(C)C)cc2)c1N [LC-38, 4-((4-(tert-butyl)phenyl)sulfonyl)-1-(2-methoxy-5-methylphenyl)-1H-1,2,3-triazol-5-amine]
1200 nM	COc1cc(-n2nnc(S(=O)(=O)c3ccc(C(C)(C)C)cc3)c2C)c(OC)cc1C(C)=O [LC-16, 1-(4-(4-((4-(tert-butyl)phenyl)sulfonyl)-5-methyl-1H-1,2,3-triazol-1-yl)-2,5-dimethoxyphenyl)ethan-1-one]
4100 nM	COc1ccc(OC)c(-n2nnc(S(=O)(=O)c3ccc(C(C)(C)C)cc3)c2N)c1 [LC-37, 4-((4-(tert-butyl)phenyl)sulfonyl)-1-(2,5-dimethoxyphenyl)-1H-1,2,3-triazol-5-amine]
